According to patent US10624345B2, “Protoporphyrinogen oxidase inhibitor mixtures” (Valent U.S.A. LLC, priority 2017, dated 2020):
“Also recorded” adds a separate entry of the source.

What was measured:
rice = test: Field trial, crop phytotoxicity, rice; type: in vivo; conditions: compared with the other adjuvant; in words
Protocol: (§1) A field trial was conducted in Mississippi, United States, to evaluate the impact of the C16 to C18 fatty acid methyl esters adjuvant system on the effectiveness of several herbicides. Rice, soybeans, cotton, peanut and corn seeds were planted and irrigated on two days after planting. Seven days after planting there was good stand of all of the crops, except only 4 of the 9 rows of rice were visible. The weeds were about 3 centimeters tall at this time. The treatments in Table 2 below were applied 13 days after planting. The rate of each treatment is below in Table 2 and all of the adjuvant systems were mixed with the herbicides at a rate of 1% v/v.
(§2) At the time of treatment: rice was at the first true leaf growth stage and from about 5 to 7 inches tall; soybeans were at the V2 growth stage and from about 5 to 7 inches tall; cotton was at the V2 growth stage and from about 5 to 7 inches tall; peanut was at the V5 growth stage and from about 3 to 5 inches tall; and corn was at the V3 growth stage and from about 9 to 12 inches tall.
(§3) The adjuvant system described in Example 1 above was used as the source of the C16 to C18 fatty acid methyl esters adjuvant system used in this study.
(§4) In this study, phytotoxicity of the crops was also evaluated.

peanut = test: Field trial, crop phytotoxicity, peanut; type: in vivo; conditions: compared with the other adjuvant; in words
Protocol: as §1, §2, §3, §4

Broadleaf Signalgrass = test: Field trial, post-emergence weed control, Broadleaf Signalgrass; type: in vivo, Brachiaria platyhylla; conditions: compared with the other adjuvant; in words
Protocol: as §1
(§5) At the time of treatment: Hemp Sesbania was at the V4 growth stage and from about 3 to 5 about inches tall; Ivyleaf Morningglory was at the V3 growth stage and from about 2 to about 4 inches tall; Common Barnyardgrass was at the V5 growth stage and from about 2.5 to about 6 inches tall; Palmer Amaranth was at the vegetative growth stage and from about 2 to about 7 inches tall; Yellow Nutsedge was at the V8 growth stage and from about 3 to about 6 inches tall; and Broadleaf Signalgrass was at the second true leaf growth stage and from about 2 to about 4 inches tall.
(§6) The weeds were evaluated fourteen days after treatment. […]

Ivyleaf Morningglory = test: Field trial, post-emergence weed control, Ivyleaf Morningglory; type: in vivo; conditions: compared with the other adjuvant; in words
Protocol: as §1, §5, §6

Common Barnyardgrass = test: Field trial, post-emergence weed control, Common Barnyardgrass; type: in vivo, Echinochloa crus-galli; conditions: compared with the other adjuvant; in words
Protocol: as §1, §5, §6

cotton = test: Field trial, crop phytotoxicity, cotton; type: in vivo; conditions: compared with the other adjuvant; in words
Protocol: as §1, §2, §3, §4

soybeans = test: Field trial, crop phytotoxicity, soybeans; type: in vivo; conditions: compared with the other adjuvant; in words
Protocol: as §1, §2, §3, §4

corn = test: Field trial, crop phytotoxicity, corn; type: in vivo; conditions: compared with the other adjuvant; in words
Protocol: as §1, §2, §3, §4

Hemp Sesbania = test: Field trial, post-emergence weed control, Hemp Sesbania; type: in vivo; conditions: compared with the other adjuvant; in words
Protocol: as §1, §5, §6

Palmer Amaranth = test: Field trial, post-emergence weed control, Palmer Amaranth; type: in vivo; conditions: compared with the other adjuvant; in words
Protocol: as §1, §5, §6

weeds = test: Field trial, impact of the adjuvant system on herbicide effectiveness, weeds overall; type: in vivo; conditions: compared with the other adjuvant; no weed named; in words
Protocol: as §1, §5
The weeds were evaluated fourteen days after treatment.
as §3

Yellow Nutsedge = test: Field trial, post-emergence weed control, Yellow Nutsedge; type: in vivo, Cyperus esculentus; conditions: compared with the other adjuvant; in words
Protocol: as §1, §5, §6

| Structure (SMILES) | Effect of C16 to C18 fatty acid methyl esters adjuvant system on phytotoxicity on rice (rice) | Effect of C16 to C18 fatty acid methyl esters adjuvant system on phytotoxicity on peanut (peanut) | Effect of C16 to C18 fatty acid methyl esters adjuvant system on effectiveness on Broadleaf Signalgrass (Broadleaf Signalgrass) | Effect of C16 to C18 fatty acid methyl esters adjuvant system on effectiveness on Ivyleaf Morningglory (Ivyleaf Morningglory) | Effect of C16 to C18 fatty acid methyl esters adjuvant system on effectiveness on Common Barnyardgrass (Common Barnyardgrass) | Effect of C16 to C18 fatty acid methyl esters adjuvant system on phytotoxicity on cotton (cotton) | Effect of C16 to C18 fatty acid methyl esters adjuvant system on phytotoxicity on soybeans (soybeans) | Effect of C16 to C18 fatty acid methyl esters adjuvant system on phytotoxicity on corn (corn) | Effect of C16 to C18 fatty acid methyl esters adjuvant system on effectiveness on Hemp Sesbania (Hemp Sesbania) | Effect of C16 to C18 fatty acid methyl esters adjuvant system on effectiveness on Palmer Amaranth (Palmer Amaranth) | Effect of C16 to C18 fatty acid methyl esters adjuvant system on effectiveness/efficacy of the herbicide (weeds overall) (weeds) | Effect of C16 to C18 fatty acid methyl esters adjuvant system on effectiveness on Yellow Nutsedge (Yellow Nutsedge) |
| --- | --- | --- | --- | --- | --- | --- | --- | --- | --- | --- | --- | --- |
| CCOC(=O)COc1ncccc1Oc1cc(-n2c(=O)cc(C(F)(F)F)n(C)c2=O)c(F)cc1Cl [ethyl [3-[2-chloro-4-fluoro-5-(1-methyl-6-trifluoromethyl-2,4-dioxo-1,2,3,4-tetrahydropyrimidin-3-yl)phenoxy]-2-pyridyloxy]acetate] | increase the phytotoxicity | increase the phytotoxicity | increases the effectiveness | did not increase the effectiveness | increases the effectiveness | did not significantly increase phytotoxicity | did not significantly increase phytotoxicity | did not significantly increase phytotoxicity | did not increase the effectiveness | did not increase the effectiveness | improved the efficacy | did not increase the effectiveness |
| CCOC(=O)C(C)OC(=O)c1cc(Oc2ccc(C(F)(F)F)cc2Cl)ccc1[N+](=O)[O-] (centres unmarked) [lactofen] | – | – | – | – | – | – | – | – | – | – | did not improve the efficacy; also recorded: failed to increase the effectiveness | – |
| C#CCN1C(=O)COc2cc(F)c(N3C(=O)C4=C(CCCC4)C3=O)cc21 [flumioxazin] | – | – | – | – | – | – | – | – | – | – | did not improve the efficacy; also recorded: failed to increase the effectiveness | – |
